± gives the expanded uncertainty stated by the source.
Legend:
[1] = for mass density / viscosity / electrical conductivity: 101.33 kPa, Liquid; for mass density: Vibrating tube method; for surface tension liquid-gas: plate method; for electrical conductivity: Alternating current cell with electrodes
[2] = refractive index (Na D-line) (dimensionless); conditions: 101.33 kPa, Liquid, Standard Abbe refractometry

Work on CC(C)C[NH2+]CCCCS(=O)(=O)O.O=S(=O)([O-])O [N-isobutyl-4-sulfobutan-1-aminium hydrogen sulfate] yielded a mass density ([1]; 293.15 K) of 1359.08 ± 4.6 kg/m3, a surface tension liquid-gas ([1]; 298.15 K) of 47.15 ± 0.71 mN/m and a viscosity ([1]; 298.15 K) of 14433 ± 3300 mPa·s. For the same compound, the electrical conductivity ([1]; 298.15 K) was 0.593 ± 0.007 S/m, the surface tension liquid-gas ([1]; 303.15 K) was 46.79 ± 0.7 mN/m and the viscosity ([1]; 303.15 K) was 9450 ± 2000 mPa·s. It also gave an electrical conductivity ([1]; 303.15 K) of 0.757 ± 0.009 S/m, a mass density ([1]; 303.15 K) of 1353.21 ± 4.6 kg/m3 and a surface tension liquid-gas ([1]; 308.15 K) of 46.48 ± 0.7 mN/m. It also gave a viscosity ([1]; 308.15 K) of 6033 ± 1200 mPa·s, an electrical conductivity ([1]; 308.15 K) of 1.04 ± 0.012 S/m and a surface tension liquid-gas ([1]; 313.15 K) of 46.12 ± 0.69 mN/m. It also gave a viscosity ([1]; 313.15 K) of 4267 ± 770 mPa·s, an electrical conductivity ([1]; 313.15 K) of 1.32 ± 0.015 S/m and a mass density ([1]; 313.15 K) of 1347.39 ± 4.6 kg/m3. For the same compound, the surface tension liquid-gas ([1]; 318.15 K) was 45.74 ± 0.69 mN/m, the viscosity ([1]; 318.15 K) was 2967 ± 490 mPa·s and the electrical conductivity ([1]; 318.15 K) was 1.65 ± 0.019 S/m. The surface tension liquid-gas ([1]; 323.15 K) was 45.3 ± 0.68 mN/m, the viscosity ([1]; 323.15 K) was 2117 ± 320 mPa·s and the electrical conductivity ([1]; 323.15 K) was 2.16 ± 0.023 S/m. For the same compound, the mass density ([1]; 323.15 K) was 1341.63 ± 4.5 kg/m3, the surface tension liquid-gas ([1]; 328.15 K) was 44.93 ± 0.67 mN/m and the viscosity ([1]; 328.15 K) was 1550 ± 220 mPa·s. For the same compound, the electrical conductivity ([1]; 328.15 K) was 2.53 ± 0.027 S/m, the viscosity ([1]; 333.15 K) was 1033 ± 130 mPa·s and the electrical conductivity ([1]; 333.15 K) was 3.01 ± 0.032 S/m. For the same compound, the mass density ([1]; 333.15 K) was 1335.95 ± 4.5 kg/m3, the viscosity ([1]; 338.15 K) was 766.7 ± 85 mPa·s and the electrical conductivity ([1]; 338.15 K) was 3.67 ± 0.039 S/m. The viscosity ([1]; 343.15 K) was 633.3 ± 66 mPa·s, the electrical conductivity ([1]; 343.15 K) was 4.29 ± 0.045 S/m and the mass density ([1]; 343.15 K) was 1330.29 ± 4.4 kg/m3. For the same compound, the viscosity ([1]; 348.15 K) was 483.3 ± 45 mPa·s, the electrical conductivity ([1]; 348.15 K) was 4.96 ± 0.051 S/m and the viscosity ([1]; 353.15 K) was 383.3 ± 32 mPa·s. The electrical conductivity ([1]; 353.15 K) was 5.61 ± 0.058 S/m, the mass density ([1]; 353.15 K) was 1324.66 ± 4.4 kg/m3 and the viscosity ([1]; 358.15 K) was 316.7 ± 24 mPa·s. For the same compound, the viscosity ([1]; 363.15 K) was 266.7 ± 19 mPa·s, the mass density ([1]; 363.15 K) was 1319.09 ± 4.4 kg/m3 and the viscosity ([1]; 368.15 K) was 200 ± 12 mPa·s. The viscosity ([1]; 373.15 K) was 166.7 ± 8.5 mPa·s, the refractive index ([2]; 293.15 K) was 1.48143 ± 0.0012 and the refractive index ([2]; 298.15 K) was 1.4803 ± 0.0012. It also gave a refractive index ([2]; 303.15 K) of 1.47918 ± 0.0012, a refractive index ([2]; 308.15 K) of 1.47804 ± 0.0012 and a refractive index ([2]; 313.15 K) of 1.47689 ± 0.0012. For the same compound, the refractive index ([2]; 318.15 K) was 1.47576 ± 0.0012, the refractive index ([2]; 323.15 K) was 1.47461 ± 0.0012 and the refractive index ([2]; 328.15 K) was 1.4734 ± 0.0012. For the same compound, the refractive index ([2]; 333.15 K) was 1.47212 ± 0.0012.
In the case of CC(C)C[NH2+]CCCS(=O)(=O)O.O=S(=O)([O-])O [N-isobutyl-3-sulfopropan-1-aminium hydrogen sulfate], the mass density ([1]; 293.15 K) is reported as 1387.92 ± 4.8 kg/m3, the surface tension liquid-gas ([1]; 298.15 K) is reported as 52.18 ± 0.78 mN/m and the electrical conductivity ([1]; 298.15 K) is reported as 0.00856 ± 0.00015 S/m. For the same compound, the surface tension liquid-gas ([1]; 303.15 K) was 51.64 ± 0.77 mN/m, the electrical conductivity ([1]; 303.15 K) was 0.0145 ± 0.00021 S/m and the mass density ([1]; 303.15 K) was 1383.65 ± 4.8 kg/m3. It also gave a surface tension liquid-gas ([1]; 308.15 K) of 51.14 ± 0.77 mN/m, a viscosity ([1]; 308.15 K) of 14383 ± 3300 mPa·s and an electrical conductivity ([1]; 308.15 K) of 0.0235 ± 0.00032 S/m. The surface tension liquid-gas ([1]; 313.15 K) was 50.69 ± 0.76 mN/m, the viscosity ([1]; 313.15 K) was 9083 ± 1900 mPa·s and the electrical conductivity ([1]; 313.15 K) was 0.0367 ± 0.00047 S/m. For the same compound, the mass density ([1]; 313.15 K) was 1377.6 ± 4.8 kg/m3, the surface tension liquid-gas ([1]; 318.15 K) was 50.15 ± 0.75 mN/m and the viscosity ([1]; 318.15 K) was 5533 ± 1100 mPa·s. It also gave an electrical conductivity ([1]; 318.15 K) of 0.0526 ± 0.00063 S/m, a surface tension liquid-gas ([1]; 323.15 K) of 49.58 ± 0.74 mN/m and a viscosity ([1]; 323.15 K) of 3833 ± 670 mPa·s. The electrical conductivity ([1]; 323.15 K) was 0.0713 ± 0.00088 S/m, the mass density ([1]; 323.15 K) was 1371.59 ± 4.7 kg/m3 and the surface tension liquid-gas ([1]; 328.15 K) was 48.98 ± 0.73 mN/m. The viscosity ([1]; 328.15 K) was 2867 ± 470 mPa·s, the electrical conductivity ([1]; 328.15 K) was 0.104 ± 0.0012 S/m and the viscosity ([1]; 333.15 K) was 1983 ± 300 mPa·s. It also gave an electrical conductivity ([1]; 333.15 K) of 0.14 ± 0.0016 S/m, a mass density ([1]; 333.15 K) of 1365.64 ± 4.7 kg/m3 and a viscosity ([1]; 338.15 K) of 1333 ± 180 mPa·s. The electrical conductivity ([1]; 338.15 K) was 0.177 ± 0.0019 S/m, the viscosity ([1]; 343.15 K) was 1033 ± 130 mPa·s and the electrical conductivity ([1]; 343.15 K) was 0.221 ± 0.0024 S/m. The mass density ([1]; 343.15 K) was 1359.71 ± 4.7 kg/m3, the viscosity ([1]; 348.15 K) was 766.7 ± 85 mPa·s and the electrical conductivity ([1]; 348.15 K) was 0.28 ± 0.0031 S/m. The viscosity ([1]; 353.15 K) was 616.7 ± 63 mPa·s, the electrical conductivity ([1]; 353.15 K) was 0.353 ± 0.0038 S/m and the mass density ([1]; 353.15 K) was 1353.8 ± 4.6 kg/m3. It also gave a viscosity ([1]; 358.15 K) of 483.3 ± 45 mPa·s, a viscosity ([1]; 363.15 K) of 416.7 ± 36 mPa·s and a mass density ([1]; 363.15 K) of 1347.97 ± 4.6 kg/m3. It also gave a viscosity ([1]; 368.15 K) of 333.3 ± 26 mPa·s, a viscosity ([1]; 373.15 K) of 283.3 ± 20 mPa·s and a refractive index ([2]; 293.15 K) of 1.50559 ± 0.0012. For the same compound, the refractive index ([2]; 298.15 K) was 1.50436 ± 0.0012, the refractive index ([2]; 303.15 K) was 1.50314 ± 0.0012 and the refractive index ([2]; 308.15 K) was 1.50205 ± 0.0012. The refractive index ([2]; 313.15 K) was 1.5008 ± 0.0012, the refractive index ([2]; 318.15 K) was 1.49974 ± 0.0012 and the refractive index ([2]; 323.15 K) was 1.49851 ± 0.0012. It also gave a refractive index ([2]; 328.15 K) of 1.49756 ± 0.0012 and a refractive index ([2]; 333.15 K) of 1.4963 ± 0.0012.

From the NIST ThermoML archive (doi:10.1021/je5001507)
